Test results from patent US20070265307A1, “Administration of 4-aminopiperidine compounds for inducing and/or stimulating the growth of keratin fibers and/or preventing loss thereof” (L'OREAL, priority 2006, published 2007).

System: normal human fibroblasts
Assay: Dermodecontracting effect: spontaneous contraction of attached dermal equivalents (collagen matrix seeded with normal human fibroblasts)
Assay type: cell-based
Conditions: dermal equivalent, contraction kinetics 0, 4, 8 and 24 hours
From the text: The principle of this test entails studying the effect of the test product on a model of dermal equivalent consisting of a collagen matrix seeded with normal human fibroblasts.
These conditions are suited to mimic, in vitro, the dermal contractile phenomena that occur during facial expressions. Under these conditions, in fact, the cells spontaneously express tensile forces which induce a retraction of the collagen gel. […] The measurement of this surface area makes it possible to evaluate the relaxing effects of the substances brought into contact beforehand with the dermal equivalent.
[…] The experiment is repeated three times.
The dermal equivalents are prepared as described in Asselineau et al., Exp. Cell. Res., 1985,159, 536-539; Models in Dermatology, 1987, vol. 3 pp 1-7, in the following proportions: […]
The collagen used is collagen type I (commercial solution). It is extracted from rat tail or from calf skin by acid hydrolysis and stored in an acidic medium at +4° C.; it polymerizes naturally by heating at 37° C. and by decreasing the degree of acidity. […]
For this, a digital image is acquired for each treated or non-treated dermal equivalent by means of a camera (Camera CCD-Iris Sony DXC-107P) and the surface area is then calculated on each image by means of an image analysis system (Zeiss Axiovision 3.0). […]

Structure (SMILES)	reduction of the fibroblast contraction, on average over the duration of the experiment, compared with the control (tested at 10 μM) [%]	reduction of the fibroblast contraction, on average over the duration of the experiment, compared with the control (tested at 1 μM) [%]
CC(NC1CCN(CCc2ccccc2)CC1)c1ccccc1 (centres unmarked) [Compound No. 5, 1-(2-phenylethyl)-4-[N-(1-phenyl-ethyl)]aminopiperidine]	40	–
c1ccc(CCCNC2CCN(CCc3ccccc3)CC2)cc1 [Compound No. 1, 1-(2-phenylethyl)-4-[N-(3-phenylpropyl)]aminopiperidine]	–	21
